According to PubChem BioAssay AID330 (DTP/NCI, 2004):
Several values for one entry are separate records, joined by “and”; a condition that tells them apart may be missing. Identical values can stand only once. Toxic doses and inconclusive results are not listed. How the source made its calls: active means survival T/C of 150% or more; inactive means T/C below 125% in these data. Peptide text beside a SMILES is read from it. * marks the point of attachment. Trt = c1ccc(C(c2ccccc2)(c2ccccc2)*)cc1; Cbz = O=C(OCc1ccccc1)*

System: P388 leukemia ip, CD2F1 mice, survival T/C
Assay: NCI In Vivo Anticancer Drug Screen. Data for tumor model P388 Leukemia (intraperitoneal) in CD2F1 (CDF1) mice
Details: endpoint: median survival time, higher = longer survival
How it was run: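 Mice carrying the transplanted tumor received test compound or vehicle. Survival was recorded in each group, and the value is the treated-group measurement divided by that of the vehicle-treated control group.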

[1] = dose: 50.0 mg/kg/injection, schedule: Q01DX005 (ip), vehicle: saline with Tween-80
[2] = dose: 100.0 mg/kg/injection, schedule: Q01DX005 (ip), vehicle: saline with Tween-80
[3] = dose: 200.0 mg/kg/injection, schedule: Q01DX005 (ip), vehicle: saline with Tween-80
[4] = dose: 50.0 mg/kg/injection, schedule: Q01DX009 (ip), vehicle: Klucel (hydroxypropylcellulose) (HPC)
[5] = dose: 100.0 mg/kg/injection, schedule: Q01DX009 (ip), vehicle: Klucel (hydroxypropylcellulose) (HPC)
[6] = dose: 200.0 mg/kg/injection, schedule: Q01DX009 (ip), vehicle: Klucel (hydroxypropylcellulose) (HPC)
[7] = dose: 12.5 mg/kg/injection, schedule: Q01DX005 (ip), vehicle: saline with Tween-80
[8] = dose: 25.0 mg/kg/injection, schedule: Q01DX005 (ip), vehicle: saline with Tween-80

Measured: T/C

CN=C1NS(=O)(=O)c2ccccc21
inactive: [1] 93 % of control | [2] 108 % of control | [3] 97 % of control

COc1ccc(NC(=O)Nc2ccc(Cl)cc2)nn1
inactive: [4] 103 % of control | [5] 101 % of control | [6] 94 % of control

C=CCOC(=O)C12CCC(C)(C)CC1C1=CCC3C4(C)CCC(O)C(C)(CO)C4CCC3(C)C1(C)CC2 (stereo not drawn)
inactive: dose: 3.0 mg/kg/injection, schedule: Q01DX005 (ip), vehicle: saline with Tween-80 111 % of control | dose: 6.0 mg/kg/injection, schedule: Q01DX005 (ip), vehicle: saline with Tween-80 114 % of control | dose: 12.0 mg/kg/injection, schedule: Q01DX005 (ip), vehicle: saline with Tween-80 100 % of control | [7] 92 % of control

Cc1cc(Br)c(NC(=S)SCc2ccc(Cl)cc2)cc1C
inactive: dose: 50.0 mg/kg/injection, schedule: Q01DX009 (ip), vehicle: suspension in saline 101 % of control | dose: 100.0 mg/kg/injection, schedule: Q01DX009 (ip), vehicle: suspension in saline 107 % of control | dose: 200.0 mg/kg/injection, schedule: Q01DX009 (ip), vehicle: suspension in saline 98 % of control

Cc1cnc(SC2C3CC4CC(C3)CC2C4)c(C)c1 (stereo not drawn)
inactive: [4] 99 % of control | [5] 94 % of control | [6] 88 % of control

CCCCCCCCCSc1nc2ccc(NC(=O)/C=C/C(=O)O)cc2s1
inactive: dose: 12.5 mg/kg/injection, schedule: Q01DX009 (ip), vehicle: Klucel (hydroxypropylcellulose) (HPC) 97 % of control | dose: 25.0 mg/kg/injection, schedule: Q01DX009 (ip), vehicle: Klucel (hydroxypropylcellulose) (HPC) 107 % of control | [4] 106 % of control and 107 % of control | [5] 113 % of control

Nc1cc2nc3ccccc3nc2cc1N
inactive: [8] 91 % of control | [1] 90 % of control

COC(=O)C(CSC(c1ccccc1)(c1ccccc1)c1ccccc1)NC(=O)C(CC(N)=O)NC(=O)OCc1ccccc1 (stereo not drawn) (Cbz-Asn-Cys(Trt)-OMe; configuration not given here)
inactive: dose: 12.5 mg/kg/injection, schedule: Q01DX009 (ip), vehicle: distilled water + Tween-80 92 % of control | dose: 25.0 mg/kg/injection, schedule: Q01DX009 (ip), vehicle: distilled water + Tween-80 97 % of control | dose: 50.0 mg/kg/injection, schedule: Q01DX009 (ip), vehicle: distilled water + Tween-80 122 % of control and 94 % of control
active: dose: 200.0 mg/kg/injection, schedule: Q01DX009 (ip), vehicle: distilled water + Tween-80 163 % of control

COc1cc(/C=C/CO)cc(OC)c1OC1OC(CO)C(O)C(O)C1O (stereo not drawn)
inactive: dose: 10.0 mg/kg/injection, schedule: Q01DX009 (ip), vehicle: saline + alcohol 100 % of control | dose: 20.0 mg/kg/injection, schedule: Q01DX009 (ip), vehicle: saline + alcohol 110 % of control | dose: 40.0 mg/kg/injection, schedule: Q01DX009 (ip), vehicle: saline + alcohol 97 % of control | dose: 80.0 mg/kg/injection, schedule: Q01DX009 (ip), vehicle: saline + alcohol 100 % of control

Cn1c(COc2ccc(/C=N/Nc3ccnc(N/N=C/c4ccc(OCc5c[n+]6ccccc6n5C)cc4)n3)cc2)c[n+]2ccccc12
inactive: [7] 105 % of control | [8] 106 % of control | [1] 104 % of control and 107 % of control | [2] 99 % of control | [3] 97 % of control

CCCCOc1cc(C(=O)O)ccc1[N+](=O)[O-]
inactive: dose: 50.0 mg/kg/injection, schedule: Q04DX003 (ip), vehicle: saline with Tween-80 100 % of control | dose: 200.0 mg/kg/injection, schedule: Q04DX003 (ip), vehicle: saline with Tween-80 104 % of control

CC1CC[P+](Cc2ccccc2)(c2ccccc2)CC1 (stereo not drawn)
inactive: dose: 1.56 mg/kg/injection, schedule: Q04DX002 (ip), vehicle: saline 98 % of control | dose: 3.13 mg/kg/injection, schedule: Q04DX002 (ip), vehicle: saline 95 % of control | dose: 6.25 mg/kg/injection, schedule: Q04DX002 (ip), vehicle: saline 90 % of control

O=c1[nH]c2cc(Cl)ccc2nc1/C=C(\O)c1cccc(O)c1
inactive: dose: 15.0 mg/kg/injection, schedule: Q01DX005 (ip), vehicle: Klucel + Tween-80 106 % of control | dose: 30.0 mg/kg/injection, schedule: Q01DX005 (ip), vehicle: Klucel + Tween-80 94 % of control | dose: 60.0 mg/kg/injection, schedule: Q01DX005 (ip), vehicle: Klucel + Tween-80 101 % of control and 88 % of control
